In US11266655B2, “Methods and compositions for treating urea cycle disorders” (Camp4 Therapeutics Corporation, priority 2019, dated 2022):
Structures can show the parent of a compound that is named as a salt. Where two headings read alike, the source gives them in different places.

Legend:
[1] = test system: SLC25A15; assay: RNA-seq of compound-treated primary human hepatocytes, SLC25A15 expression; type: cell-based; conditions: for Fold change (Log 2) vs untreated, SLC25A15 expression: RNA-seq (Table 8); for Increase in SLC25A15 gene expression (qualitative): Example 11, relative mRNA vs DMSO
[2] = test system: CPS1; assay: RNA-seq of compound-treated primary human hepatocytes, CPS1 expression; type: cell-based; conditions: primary human hepatocytes; for Relative CPS1 level vs Untreated (±Standard Deviation): triplicate (Table 19, FIG. 11)
[3] = test system: ASS1; assay: RNA-seq of compound-treated primary human hepatocytes, ASS1 expression; type: cell-based; conditions: for Fold change (Log 2) vs untreated, ASS1 expression: RNA-seq (Table 4)
[4] = test system: NAGS; type: cell-based, human
[5] = test system: urea cycle genes; assay: RNA-seq of primary human hepatocytes, compounds that modulate multiple urea cycle-related genes; type: cell-based; conditions: primary human hepatocytes, RNA-seq; for Up-regulated Genes: urea cycle-related genes significantly increased (Table 10)
[6] = test system: ARG1; assay: RNA-seq of compound-treated primary human hepatocytes, ARG1 expression; type: cell-based; conditions: for Relative ARGI level vs Untreated (±Standard Deviation) / Fold change (Log 2) vs untreated, ARG1 expression: primary human hepatocytes; for Relative ARGI level vs Untreated (±Standard Deviation): triplicate (Table 17, FIG. 9); for Fold change (Log 2) vs untreated, ARG1 expression: RNA-seq (Table 7)
[7] = primary human hepatocytes, RNA-seq (Table 6)
[8] = 3 μM, primary human hepatocytes, triplicate (Table 21, FIG. 13)
[9] = 0.3 μM, primary human hepatocytes, triplicate (Table 21, FIG. 13)
[10] = 10 μM, primary human hepatocytes, triplicate (Table 24, FIG. 16A-B)
[11] = 3 μM, primary human hepatocytes, triplicate (Table 15, FIG. 7)
[12] = 10 μM, primary human hepatocytes, triplicate (Table 15, FIG. 7)

N#CC(c1ccnc(OCc2ccc(CN3CCOCC3)cc2)n1)c1nc2ccccc2s1 (stereo not shown) [AS602801]
Relative SLC25A15 level vs Untreated (±Standard Deviation) ([1]; 10 µM): 2.22 ± 0.24

Cc1cc(C(=O)NOCCO)c(Nc2ccc(I)cc2F)n(C)c1=O [AZD8330]
Relative CPS1 level vs Untreated (±Standard Deviation) ([2]; 0.3 μM): 1.33 ± 0.03
Relative CPS1 level vs Untreated (±Standard Deviation) ([2]; 3 μM): 1.60 ± 0.24

N#CC(c1ccnc(OCc2ccc(CN3CCOCC3)cc2)n1)c1nc2ccccc2s1 (stereo not shown) [Bentamapimod]
Relative ASS1 level vs Untreated (±Standard Deviation) ([3]; 10 µM): 1.90 ± 0.22

C=C1/C(=C\C=C2/CCC[C@]3(C)[C@@H]([C@H](C)CCCC(C)(C)O)CC[C@@H]23)C[C@@H](O)C[C@@H]1O [Calcitriol]
Fold change (Log 2) vs untreated, NAGS expression [4, 7]: 1.2 Log 2

O=C(NOCCO)c1cc(CN2OCCCC2=O)c(F)c(F)c1Nc1ccc(I)cc1F [Compound R04987655]
Relative CPS1 level vs Untreated (±Standard Deviation) ([2]; 1 μM): 1.46 ± 0.27
Relative CPS1 level vs Untreated (±Standard Deviation) ([2]; 10 μM): 1.33 ± 0.21

C[C@]12C[C@H](O)[C@H]3[C@@H](CCC4=CC(=O)CC[C@@]43C)[C@@H]1CC[C@@H]2C(=O)CO [Corticosterone]
Fold change (Log 2) vs untreated, SLC25A15 expression ([1]; primary human hepatocytes): 0.96 Log 2

O=C(N[C@H]1CN2CCC1CC2)c1cc2cccc(Cl)c2s1 [EVP-6124 (hydrochloride) (encenicline), encenicline]
Fold change (Log 2) vs untreated, NAGS expression [4, 7]: 0.75 Log 2

CS[C@H]1SC[C@H]2C(=O)N(C)[C@@H](C(C)C)C(=O)OC[C@@H](NC(=O)c3cnc4ccccc4n3)C(=O)N[C@@H](C)C(=O)N(C)[C@@H]1C(=O)N(C)[C@@H](C(C)C)C(=O)OC[C@@H](NC(=O)c1cnc3ccccc3n1)C(=O)N[C@@H](C)C(=O)N2C [Echinomycin]
number of urea cycle genes whose expression was significantly up-regulated [5]: six
Increase in SLC25A15 gene expression (qualitative) [1]: greatest increase

CCn1c(=O)c(-c2ccc(-c3cncs3)cc2Cl)cc2cnc(Nc3ccc(N4CCN(C)CC4)cc3)nc21 [FRAX597]
number of urea cycle genes whose expression was significantly up-regulated [5]: five
Up-regulated Genes [5]: CPS1, ASS1, OTC, ARG1, SLC25A15

NC(=O)c1ccc(I)c([N+](=O)[O-])c1 [Iniparib (BSI-]
Relative NAGS level vs Untreated (±Standard Deviation) [4]: 1.35 ± 0.27

Cc1ccc(F)c(NC(=O)Nc2ccc(-c3cccc4[nH]nc(N)c34)cc2)c1 [Linifanib]
Relative NAGS level vs Untreated (±Standard Deviation) [4, 8]: 1.32 ± 0.04

N#CCNC(=O)c1ccc(-c2ccnc(Nc3ccc(N4CCOCC4)cc3)n2)cc1 [Momelotinib]
number of urea cycle genes whose expression was significantly up-regulated [5]: three
Up-regulated Genes [5]: CPS1, OTC, ARG1

[H]/N=C(/N)N/C(=N/[H])NCCc1ccccc1 [Phenformin]
Fold change (Log 2) vs untreated, NAGS expression [4]: 1.38 Log 2

CCCC(=O)O[C@@H]1[C@@H](C)[C@@]2(O)[C@@H](C=C(CO)C[C@]3(O)C(=O)C(C)=C[C@@H]23)[C@@H]2C(C)(C)[C@]12OC(=O)CCC [Phorbol 12, 13-dibutyrate]
Fold change (Log 2) vs untreated, NAGS expression [4, 7]: 0.62 Log 2

CCc1ccc(CCOc2ccc(CC3SC(=O)NC3=O)cc2)nc1 (stereo not shown) [Pioglitazone HCl]
Relative NAGS level vs Untreated (±Standard Deviation) [4, 9]: 1.33 ± 0.02

COc1cc(Nc2ncc(F)c(Nc3ccc4c(n3)N(COP(=O)(O)O)C(=O)C(C)(C)O4)n2)cc(OC)c1OC [R788 (fostamatinib disodium hexahydrate), fostamatinib disodium hexahydrate]
number of urea cycle genes whose expression was significantly up-regulated [5]: three
Up-regulated Genes [5]: CPS1, ARG1, SLC25A15

O=C(NOCCO)c1cc(CN2OCCCC2=O)c(F)c(F)c1Nc1ccc(I)cc1F [RO4987655)]
Relative SLC25A15 level vs Untreated (±Standard Deviation) [1, 10]: 1.31 ± 0.13

O=C(NCCCn1ccnc1)c1cc(-c2ccco2)on1 [SKL2001]
Fold change (Log 2) vs untreated, NAGS expression [4]: 0.95 Log 2

O=C1NC(=O)/C(=C/c2cccc(C(F)(F)F)c2)S1 [SMI-4a]
Fold change (Log 2) vs untreated, ASS1 expression ([3]; primary human hepatocytes): 0.69 Log 2
Fold change (Log 2) vs untreated, NAGS expression [4]: 1.25 Log 2

Cc1cc(C)c(/C=C2\C(=O)Nc3ccccc32)[nH]1 [Semaxanib]
Fold change (Log 2) vs untreated, NAGS expression [4, 7]: 2 Log 2

CCN(CC)CCNC(=O)c1c(C)[nH]c(/C=C2\C(=O)Nc3ccc(F)cc32)c1C [Sunitinib]
Relative SLC25A15 level vs Untreated (±Standard Deviation) ([1]; 0.3 μM, primary human hepatocytes, triplicate (Table 24, FIG. 16A-B)): 1.32 ± 0.08
Relative SLC25A15 level vs Untreated (±Standard Deviation) ([1]; 3 μM, primary human hepatocytes, triplicate (Table 24, FIG. 16A-B)): 2.36 ± 0.20
Relative SLC25A15 level vs Untreated (±Standard Deviation) [1, 10]: 2.43 ± 0.29
Relative ASS1 level vs Untreated (±Standard Deviation) [3, 11]: 2.25 ± 0.45
Relative ASS1 level vs Untreated (±Standard Deviation) [3, 12]: 2.70 ± 0.37
Relative ARGI level vs Untreated (±Standard Deviation) ([6]; 10 μM): 1.36 ± 0.01
Relative NAGS level vs Untreated (±Standard Deviation) [4, 9]: 1.40 ± 0.03
Relative NAGS level vs Untreated (±Standard Deviation) ([4]; 1 μM, primary human hepatocytes, triplicate (Table 21, FIG. 13)): 1.63 ± 0.42

CN1CCN(CCCN2c3ccccc3Sc3ccc(C(F)(F)F)cc32)CC1 [TFP, Trifluoperazine]
Fold change (Log 2) vs untreated, NAGS expression [4, 7]: 0.58 Log 2

CN(C)[C@@H]1C(O)=C(C(N)=O)C(=O)[C@@]2(O)C(O)=C3C(=O)c4c(O)c(NC(=O)CN5CCCC5)cc(F)c4C[C@H]3C[C@@H]12 [TP-434 (Eravacycline), Eravacycline]
Fold change (Log 2) vs untreated, ASS1 expression ([3]; primary human hepatocytes): 0.76 Log 2
Fold change (Log 2) vs untreated, NAGS expression [4, 7]: 1.5 Log 2

O=C1CCC(N2C(=O)c3ccccc3C2=O)C(=O)N1 (stereo not shown) [Thalidomide]
number of urea cycle genes whose expression was significantly up-regulated [5]: five
Up-regulated Genes [5]: NAGS, CPS1, ALS, OTC, ARG1
Fold change (Log 2) vs untreated, NAGS expression [4, 7]: 1.1 Log 2

CCn1c(=O)c(-c2cc[nH]n2)cc2c(C)nc(N)nc21 [Voxtalisib]
Relative ASS1 level vs Untreated (±Standard Deviation) [3, 12]: 1.43 ± 0.13
Relative ARGI level vs Untreated (±Standard Deviation) ([6]; 3 μM): 1.34 ± 0.16
Relative ARGI level vs Untreated (±Standard Deviation) ([6]; 10 μM): 1.48 ± 0.18
Relative NAGS level vs Untreated (±Standard Deviation) [4, 9]: 1.35 ± 0.04
Relative NAGS level vs Untreated (±Standard Deviation) [4, 8]: 1.33 ± 0.15
Relative NAGS level vs Untreated (±Standard Deviation) ([4]; 10 μM, primary human hepatocytes, triplicate (Table 21, FIG. 13)): 1.78 ± 0.04

CC(C)c1cc(CNc2nc(Nc3cc(C4CC4)[nH]n3)cc(N3CCN(C)CC3)n2)on1 [XL228]
Increase in SLC25A15 gene expression (qualitative) [1]: greatest increase
Relative ASS1 level vs Untreated (±Standard Deviation) ([3]; 1 μM, primary human hepatocytes, triplicate (Table 15, FIG. 7)): 1.83 ± 0.02
Relative ASS1 level vs Untreated (±Standard Deviation) [3, 11]: 1.45 ± 0.10
Relative ASS1 level vs Untreated (±Standard Deviation) [3, 12]: 2.05 ± 0.00
Relative ARGI level vs Untreated (±Standard Deviation) ([6]; 0.3 μM): 1.47 ± 0.11
Relative ARGI level vs Untreated (±Standard Deviation) ([6]; 1 μM): 2.05 ± 0.11
Relative ARGI level vs Untreated (±Standard Deviation) ([6]; 3 μM): 2.15 ± 0.04
increase in ARG1 gene expression (Tables 17, 18, FIG. 9, 10) ([6]; Example 11, relative mRNA vs DMSO): greatest increase

COc1nc(N)nc2c1ncn2[C@@H]1O[C@H](COP(=O)(N[C@@H](C)C(=O)OCC(C)(C)C)Oc2cccc3ccccc23)[C@@H](O)[C@@]1(C)O (stereo partly shown) [bms-986094 (inx-189)]
Fold change (Log 2) vs untreated, SLC25A15 expression ([1]; primary human hepatocytes): 1.18 Log 2

C[C@]12C=CC(=O)C=C1CC[C@@H]1[C@@H]2C(=O)C[C@@]2(C)[C@H]1CC[C@]2(O)C(=O)CO [prednisone]
number of urea cycle genes whose expression was significantly up-regulated [5]: three
Up-regulated Genes [5]: CPS1, NAGS, ARG1
Fold change (Log 2) vs untreated, NAGS expression [4, 7]: 1 Log 2

CC(=O)CC(c1ccccc1)c1c(O)c2ccccc2oc1=O (stereo not shown) [wafarin]
Relative ARGI level vs Untreated (±Standard Deviation) ([6]; 10 μM): 1.33 ± 0.62

TNF-a
Fold change (Log 2) vs untreated, ARG1 expression [6]: 1.87 Log 2

B1: Wnt3 a (protein, UniProt P56704 19-352, looked up)
Protein Wnt-3a: SYPIWWSLAVGPQYSSLGSQPILCASIPGLVPKQLRFCRNYVEIMPSVAEGIKIGIQECQHQFRGRRWNCTTVHDSLAIFGPVLDKATRESAFVHAIASAGVAFAVTRSCAEGTAAICGCSSRHQGSPGKGWKWGGCSEDIEFGGMVSREFADARENRPDARSAMNRHNNEAGRQAIASHMHLKCKCHGLSGSCEVKTCWWSQPDFRAIGDFLKDKYDSASEMVVEKHRESRGWVETLRPRYTYFKVPTERDLVYYEASPNFCEPNPETGSFGTRDRTCNVSSHGIDGCDLLCCGRGHNARAERRREKCRCVFHWCCYVSCQECTRVYDVHTCK
Fold change (Log 2) vs untreated, SLC25A15 expression ([1]; primary human hepatocytes): 0.7 Log 2

B2: GDF10 (BMP3b): member of the BMP family and the TGF-B superfamily (protein, UniProt P55107 369-478, looked up)
Growth/differentiation factor …: QWDEPRVCSRRYLKVDFADIGWNEWIISPKSFDAYYCAGACEFPMPKIVRPSNHATIQSIVRAVGIIPGIPEPCCVPDKMNSLGVLFLDENRNVVLKVYPNMSVDTCACR
CPS1 expression, Fold change (Log 2) vs untreated ([2]; RNA-seq): 1.66 Log 2

B3: GDF 10 (BMP3b) (protein, UniProt P55107 369-478, looked up)
Growth/differentiation factor …: QWDEPRVCSRRYLKVDFADIGWNEWIISPKSFDAYYCAGACEFPMPKIVRPSNHATIQSIVRAVGIIPGIPEPCCVPDKMNSLGVLFLDENRNVVLKVYPNMSVDTCACR
Fold change (Log 2) vs untreated, ARG1 expression [6]: 0.97 Log 2
